Like-named read-outs stand apart in the source and are kept apart here.
Legend:
[1] = tested on: methoxamine-precontracted rabbit aortic rings; assay: In vitro NO-mediated vasorelaxation; assay type: cell-based
Procedure: The ability of compound (6) disclosed in example 1, to induce in vitro vasorelaxation, which is a functional marker of NO release, was assessed on methoxamine-precontracted rabbit aortic rings.
(§1) Thoracic aortas from male New Zealand rabbits or male Sprague Dawley (SD) were used. The aortas were placed immediately in Krebs-HEPES buffer (pH 7.4; composition mM: NaCl 130.0, KCl 3.7, NaHCO3 14.9, KH2PO4 1.2, MgSO4.7H2O 1.2, Glucose 11.0, HEPES 10.0, CaCl2.2H2O 1.6). Connective tissue was removed and aortas were cut into ring segments (4-5 mm in length). Each ring was placed in a 5 mL tissue bath filled with Krebs-HEPES buffer (37° C.) aerated with 95% O2 and 5% CO2 and was attached to a force transducer (Grass FT03), connected to a BIOPAC MP150 System for measurement of the isometric tension. Preparations were allowed to equilibrate for 1 h at a resting tension of 2 g for rabbit aortas and 1 g for rat aortas with changes of the buffer every 15 min. Then the rings were stimulated by exposure to 90 mM KCl (3 times) with intervening washings.
Rabbit aorta. […]
Data analysis. […] Vascular responses are expressed as percentage relaxation and plotted vs concentration. […] Responses are quantified in terms of EC50 and Emax (maximal vasodilating effect) values, obtained from the concentration-response curve by nonlinear curve fitting, using GraphPad software.

[2] = tested on: rat L-NAME-induced hypertension; assay: Rat L-NAME-induced hypertension, systolic blood pressure after single oral dose; assay type: in vivo; settings: for Delta vs basal (mmHg): Comp. (6) 100 mg/kg oral, L-NAME 50 mg/kg i.p.
Procedure: To assess the in vivo NO-dependent activity, Compound (6) was evaluated for systolic blood pressure (SBP) reduction efficacy in a rat model of NO-deprivation induced by L-NAME and compared with 5-ISMN.
(§2) Fasted male SD rats (250-300 g, n=3-5 per group), obtained from Harlan Italy (Correzzana, Milan, Italy) were orally treated with tested compounds or vehicle (DMSO:Methocel 1% 2/98 v/v) in a total volume of 4 ml/kg by gavage. At each time point (1, 3, 6 and 24 h) animals were deeply anesthetized with Zoletil® 100 (3 mg/kg), given intramuscularly. Thereafter, a pressure catheter (Samba Sensors, Harvard Apparatus, UK) was introduced into the common carotid artery for central blood pressure measurement. Pressure transducer was connected to a personal computer, in order to allow real time monitor of the pressure tracing. After 10 minutes of basal recording, L-NAME (50 mg/kg) was administered intraperitoneally and the effect on SBP monitored. When the SBP stabilized (5 minutes without variations) the recording was stopped. To further confirm that functional activity was NO-dependent, at each time point blood ^15N-nitrite levels were measured following the procedure described in Example 12.

[3] = tested on: rat L-NAME-induced hypertension; assay: In vivo tolerance evaluation (L-NAME-induced hypertension after 5-day oral treatment); settings: for Delta vs basal (mmHg): peak effect 3 hours
Procedure: as §2
To investigate whether the compound (6) induced nitrate tolerance, as observed for most of the drugs belonging to the nitrate class, the L-NAME-induced hypertension rat model described in Example 7 was performed following a repeated oral treatment. Rats were orally treated for 5 days with vehicle, compound (6) (100 mg/kg) or 5-ISMN (30 mg/kg). […] The experiments were performed at the peak effect (1 hour for 5-ISMN and 3 hours for Compound (6)), results are reported in Table 3.

[4] = tested on: isolated aortas from rats; assay: Ex vivo tolerance evaluation (vascular response of isolated aortas from treated rats); assay type: in vivo, rat; settings: for EC50 at 100 mg/kg: Rattus norvegicus, vascular response to Compound (6), 3 h after last administration
Procedure: as §1
(§3) Rat aorta. After equilibration, rat aortas were precontracted with KCl (90 mM) and, when the contraction was stable, a cumulative concentration-response curve to acetylcholine (ACh, 0.01-100 μM) was added. After washout, the rings were precontracted again with KCl (90 mM). When a steady-state level of contraction was obtained, a cumulative concentration-response curve to the tested compounds (0.01-100 μM) was obtained.
(§4) Data analysis. Results are given as mean±SEM. Vascular responses are expressed as percentage relaxation and plotted vs concentration. The sensitivity of isolated aorta to different vasodilators is expressed as the concentration that elicited 50% of the maximal responses (EC50). Responses are quantified in terms of EC50 and Emax (maximal vasodilating effect) values, obtained from the concentration-response curve by nonlinear curve fitting, using GraphPad software.
Tolerance to nitrate was further investigated assessing the vascular effects of Compound (6) following repeated treatment compared with 5-ISMN. The vascular response to the compound itself was assessed on isolated aortas from rats orally treated for 5 days with Compound (6) (100 mg/kg). The vascular response was performed as described in Example 6.
Vascular responses were performed 1 h (ISMN) or 3 h (Compound (6)) after the last administration, the concentrations of tested compound that elicited the 50% of the maximal responses (EC50) are shown in Table 4.

[5] = tested on: rat aorta, endothelial-dependent vasodilation (response to ACh); assay: Endothelial dysfunction evaluation (vascular response to acetylcholine after treatment); assay type: in vivo; settings: for Emax at 100 mg/kg: Rattus norvegicus, response to ACh, read-out: % relaxation (Emax)
Procedure: as §1, §3, §4
Endothelial-dependent vasodilation (vascular response to acetylcholine, ACh) was assessed following 5-day treatment with Compound (6) (100 mg/kg) or 5-ISMN (30 mg/kg). A relaxant response to ACh indicated the presence of a functional endothelium. The vascular response was performed as described in Example 6.

[6] = compound (6) 100 mg/kg oral, 5 days

## COC1=C(OC)C(=O)C(CCCCCCCCCCO[N+](=O)[O-])=C(C)C1=O [Compound (6), 10-(4,5-dimethoxy-2-methyl-3,6-dioxocyclohexa-1,4-dienyl)decyl nitrate]
[1]; 100 μM
  relaxation at the highest concentration tested: 89±1%
[1]; Oryctolagus cuniculus, methoxamine (3 μM) precontracted, functional endothelium, read-out: EC50 (concentration-dependent relaxation)
  EC50: 4700 ± 200 nM
[2]; 1 hour
  Delta vs basal (mmHg): 53.5 ± 4.5 mmHg
[2]; 3 hours
  Delta vs basal (mmHg): 14 ± 3.8 mmHg
[2]; 6 hours
  Delta vs basal (mmHg): 38 ± 3.6 mmHg
[2]; 24 hours
  Delta vs basal (mmHg): 67.7 ± 16.8 mmHg
[2]; Compound (6) 100 mg/kg, single oral administration
  time over which L-NAME induced SBP increase was prevented after treatment: 6 h
[3]; acute treatment, Comp. (6) 100 mg/kg oral
  Delta vs basal (mmHg): 14 ± 3.8 mmHg
[3]; [6]
  efficacy against L-NAME-induced hypertension after 5-day treatment (nitrate tolerance), in words: counteracted L-NAME-induced hypertension after 5-day oral treatment
[3]; repeated (5 days) oral treatment, Comp. (6) 100 mg/kg
  Delta vs basal (mmHg): 27.8 ± 4 mmHg
[4]; acute, aortas of rats given Compound (6) 100 mg/kg
  EC50 at 100 mg/kg: 110 ± 20 nM
[4]; repeated (5 days oral) Compound (6) 100 mg/kg
  EC50 at 100 mg/kg: 180 ± 20 nM
[4]; [6]
  vascular response of aortas from treated animals vs vehicle arteries, in words: showed the same sensitivity to Compound (6) as those arteries of animals treated only with vehicle
[5]; Compound (6) 100 mg/kg, 5-day treatment
  effect on endothelial-dependent vasorelaxation, in words: did not modify endothelial-dependent vasorelaxation
[5]; 120 h, repeated (5-day) Comp. (6) 100 mg/kg
  Emax at 100 mg/kg: 84.3 ± 7.5%
[5]; acute, Comp. (6) 100 mg/kg
  Emax at 100 mg/kg: 89.6 ± 4.5%

Reference: patent US9079821B2, “Quinone based nitric oxide donating compounds” (NICOX S.A., priority 2011, dated 2015)
